Results from PMC12782889, “A GmNRF5a–GmCERK1–GmCAK1 module mediates chitin/chitosan‐triggered immune response in soybean” (Journal of Integrative Plant Biology, 2025).

Tested on: soybean leaf discs (ROS burst)
Experiment: Luminol-based ROS burst assay in soybean leaf discs
Assay type: cell-based, soybean (Glycine max)
Settings: 50 mg/L, leaf discs of soybean Williams, dH2O negative control
Procedure: To measure the oxidation burst, leaf discs (Ø 0.5 cm) collected from 2-week-old soybean (cultivar Williams) were floated overnight in 200 μL sterile H2O in a 96-well plate. The H2O was replaced with 200 μL reaction buffer containing luminol/peroxidase ([…] luminol, 10 mg/mL peroxidase) and chitooligosaccharides treatments (50 mg/L). flg22 was used as a positive control. The luminescence was measured using a GLOMAX96 microplate luminometer (Promega, Madison, WI, USA). The experiments for MAPK activation were carried out as described previously ([[…] et al., 2014]). The MAPK activation was determined by immunoblots with anti-phospho-p44/42 MAPK antibody (#4370; Cell Signaling, Boston, MA, USA).

CC(=O)N[C@@H]1[C@@H](O)[C@H](O[C@@H]2O[C@H](CO)[C@@H](O[C@@H]3O[C@H](CO)[C@@H](O[C@@H]4O[C@H](CO)[C@@H](O[C@@H]5O[C@H](CO)[C@@H](O)[C@H](O)[C@H]5NC(C)=O)[C@H](O)[C@H]4NC(C)=O)[C@H](O)[C@H]3NC(C)=O)[C@H](O)[C@H]2NC(C)=O)[C@@H](CO)O[C@H]1O [Chitin oligosaccharide (dp5), chitin oligosaccharide]
ROS burst: stronger ROS burst than that of CTOS (dp4)
